Results published in article PMC12332266 (Frontiers in Pharmacology, 2025).
Like-named read-outs stand apart in the source and are kept apart here. One block for each compound: values may come before it.

Tests used:
[1] = system: hiPSC-CM (iCell Cardiomyocytes^2); test: RTCA CardioECR assessment (impedance and electrophysiology parameters)
Procedure: (§1) Culture media change was performed every 2 days.
After seeding on fibronectin-coated xCELLigence ePlates (Agilent Technologies, Inc. Santa Clara, CA, USA), iCell^2 CM were monitored continuously through impedance electrodes. The following impedance parameters were measured: Cell Index (CI, measure of cell “health” and monolayer integrity), beating rate (BR) and amplitude (CI Amplitude, magnitude of contraction). Electrophysiology-like parameters (Field Potential Duration (FPD), considered as a surrogate for QT in in vivo studies, and Spike Amplitude (SA), depolarization induced by Na^+ channel opening) were measured starting from day 4–6, following the monolayer formation. […] All RTCA CardioECR data were double normalized (DMSO control and the baseline) with no further statistical group comparison for the normalized parameters. The variability of the data within the treatment groups was assessed by standard deviation.

[2] = system: hiPSC-CM (iCell Cardiomyocytes^2); test: Intracellular miRNA expression by RT-qPCR in hiPSC-CM pellets after 72-hour treatment; details: for fold induction at 0.3 µM / fold induction at 1 µM / fold induction at 3 µM / fold induction at 10 µM: Homo sapiens
Procedure: as §1
Total RNA was extracted from hiPSC-CM using the miRNeasy 96 Kit (Qiagen, Hilden, Germany) following the manufacturer’s recommendations. After the extraction, RNA purity was assessed by NanoDrop™ 8000 Spectrophotometer (Thermo Fisher Scientific Inc.). 5–10 ng/μL of RNA per sample were reverse transcribed and pre-amplified by using the TaqMan™ Advanced miRNA cDNA Synthesis Kit (Thermo Fisher Scientific Inc.). The synthesized cDNA was used for RT-qPCR with selected TaqMan™ assays (Thermo Fischer Scientific Inc.). RT-qPCR was carried out following the Applied Biosciences TaqMan miRNA expression assay protocol on a ViiA7 instrument (Thermo Fisher Scientific, Inc.). […] Therefore, to maximize the number of drugs and concentrations, explored in the same study, we pooled the triplicates for intracellular profiling of miRNAs. Therefore, no statistical analysis was performed on the data of miRNA profiling in the pellets of hiPSC-CM.
Following RTCA CardioECR assessment, hiPSC-CM cell pellets were collected, and total RNA was extracted and purified to investigate miRNAs upregulation by RT-qPCR. […] For the initial assessment of intracellular miRNAs in 12 different treatments, encompassing various drug classes, we used a panel of 17 miRNAs, which we selected from the publicly available data focusing mainly on in vitro models and structural cardiotoxicants (Supplementary Table S2).

[3] = ref extensive literature search, cited from earlier work
[4] = hiPSC-CM, 72-hour treatment, at least 20% change, Supplementary Table 1
[5] = hiPSC-CM, 72-hour treatment, lowest concentration causing at least 20% change from baseline
[6] = 72 h, read-out: hsa-miR-7-5p fold change
[7] = 72 h, read-out: hsa-miR-29a-5p fold change
[8] = 72 h, read-out: hsa-miR-96-5p fold change
[9] = 72 h, read-out: hsa-miR-126-3p fold change
[10] = 72 h, read-out: hsa-miR-146b-5p fold change
[11] = 72 h, read-out: hsa-miR-182-5p fold change
[12] = 72 h, read-out: hsa-miR-185-3p fold change
[13] = 72 h, read-out: hsa-miR-187-3p fold change
[14] = 72 h, read-out: hsa-miR-208b-3p fold change
[15] = 72 h, read-out: hsa-miR-[…] change

SMILES: CC(C)C[C@H](NC(=O)[C@H](CCc1ccccc1)NC(=O)CN1CCOCC1)C(=O)N[C@@H](Cc1ccccc1)C(=O)N[C@@H](CC(C)C)C(=O)[C@@]1(C)CO1 [Carfilzomib]
- effect on BR at the lowest concentration tested ([1]; hiPSC-CM, 72-hour treatment): quiescence (beat stop)
- Field Potential Duration MEC ([1]; hiPSC-CM, 72-hour treatment, at least 10% change): 0.3 µM
- Contractility Amplitude MEC ([1]; hiPSC-CM, 72-hour treatment, at least 20% change): 0.3 µM
- Beating Rate MEC [1, 4]: 0.3 µM
- Cell Index MEC [1, 4]: 0.3 µM
- Spike Amplitude (SA) MEC ([1]; hiPSC-CM, 72-hour treatment, at least 40% change): 0.3 µM
- Beating rate (BR) MEC [1, 5]: 0.3 µM
- Cell index (CI) MEC [1, 5]: 0.3 µM
- RTCA, MEC (BR) ([1]; hiPSC-CM, change ≥20%, Table 2): 0.3 µM (CI, BR (Q))
- RTCA, MEC (CI) ([1]; hiPSC-CM, change ≥20%, Table 2): 0.3 µM (CI, BR (Q))
- hsa-miR-7-5p fold change, intracellular ([2]; 0.3 µM, 72 h): 8.1
- hsa-miR-29a-5p fold change, intracellular ([2]; 0.3 µM, 72 h): 0.4
- hsa-miR-96-5p fold change, intracellular ([2]; 0.3 µM, 72 h): 21.0
- hsa-miR-126-3p fold change, intracellular ([2]; 0.3 µM, 72 h): 2.1
- hsa-miR-133b fold change, intracellular ([2]; 0.3 µM, 72 h): 5.5
- hsa-miR-146b-5p fold change, intracellular ([2]; 0.3 µM, 72 h): 0.3
- hsa-miR-182-5p fold change, intracellular ([2]; 0.3 µM, 72 h): 12.6
- hsa-miR-185-3p fold change, intracellular ([2]; 0.3 µM, 72 h): 1.1
- hsa-miR-187-3p fold change, intracellular ([2]; 0.3 µM, 72 h): 0.7
- hsa-miR-208b-3p fold change, intracellular ([2]; 0.3 µM, 72 h): 1.1
- hsa-miR-365a-5p fold change, intracellular ([2]; 0.3 µM, 72 h): 0.2
- hsa-miR-7-5p fold change, intracellular ([2]; 1 µM, 72 h): 1.3
- hsa-miR-29a-5p fold change, intracellular ([2]; 1 µM, 72 h): 1.4
- hsa-miR-96-5p fold change, intracellular ([2]; 1 µM, 72 h): 5.6
- hsa-miR-126-3p fold change, intracellular ([2]; 1 µM, 72 h): 0.9
- hsa-miR-133b fold change, intracellular ([2]; 1 µM, 72 h): 0.3
- hsa-miR-146b-5p fold change, intracellular ([2]; 1 µM, 72 h): 0.08
- hsa-miR-182-5p fold change, intracellular ([2]; 1 µM, 72 h): 20.8
- hsa-miR-185-3p fold change, intracellular ([2]; 1 µM, 72 h): 9.0
- hsa-miR-187-3p fold change, intracellular ([2]; 1 µM, 72 h): 1.7
- hsa-miR-208b-3p fold change, intracellular ([2]; 1 µM, 72 h): 1.0
- hsa-miR-365a-5p fold change, intracellular ([2]; 1 µM, 72 h): 0.01
- hsa-miR-7-5p fold change, intracellular ([2]; 3 µM, 72 h): 2.3
- hsa-miR-96-5p fold change, intracellular ([2]; 3 µM, 72 h): 10.7
- hsa-miR-126-3p fold change, intracellular ([2]; 3 µM, 72 h): 0.5
- hsa-miR-133b fold change, intracellular ([2]; 3 µM, 72 h): 0.4
- hsa-miR-146b-5p fold change, intracellular ([2]; 3 µM, 72 h): 0.06
- hsa-miR-182-5p fold change, intracellular ([2]; 3 µM, 72 h): 14.0
- hsa-miR-185-3p fold change, intracellular ([2]; 3 µM, 72 h): 3.3
- hsa-miR-187-3p fold change, intracellular ([2]; 3 µM, 72 h): 2.1
- hsa-miR-208b-3p fold change, intracellular ([2]; 3 µM, 72 h): 1.0
- hsa-miR-365a-5p fold change, intracellular ([2]; 3 µM, 72 h): 0.04
- hsa-miR-7-5p fold change, intracellular ([2]; 10 µM, 72 h): 3.8
- hsa-miR-29a-5p fold change, intracellular ([2]; 10 µM, 72 h): 0.8
- hsa-miR-96-5p fold change, intracellular ([2]; 10 µM, 72 h): 1.6
- hsa-miR-126-3p fold change, intracellular ([2]; 10 µM, 72 h): 0.4
- hsa-miR-133b fold change, intracellular ([2]; 10 µM, 72 h): 0.3
- hsa-miR-146b-5p fold change, intracellular ([2]; 10 µM, 72 h): 0.01
- hsa-miR-182-5p fold change, intracellular ([2]; 10 µM, 72 h): 5.7
- hsa-miR-185-3p fold change, intracellular ([2]; 10 µM, 72 h): 0.2
- hsa-miR-187-3p fold change, intracellular ([2]; 10 µM, 72 h): 20.5
- hsa-miR-208b-3p fold change, intracellular ([2]; 10 µM, 72 h): 1.0
- hsa-miR-365a-5p fold change, intracellular ([2]; 10 µM, 72 h): 0.02
- miRNAs upregulated at the MEC overall (hiPSC-CM pellet) ([2]; fold change ≥2, 72 h): miR-126-3p, miR-133b, miR-182-5p, miR-184, miR-187-3p, miR-7-5p, miR-96-5p
- miRNAs hiPSC-CM pellet, MEC overall ([2]; lowest concentration tested which produced miRNA upregulation (fold change ≥2), 72 h): 0.3 µM
- Cmax total ([3]; Supplementary Table 1): 5.88 µM
- Cmax total ([3]; Table 1): 5.88 µM

- Contractility Amplitude MEC ([1]; human, 72 h): 0.0003 µM
- Spike Amplitude (SA) MEC ([1]; human, 72 h): 10 µM
- miRNAs hiPSC-CM pellet, MEC overall [2]: 0.3 µM
- miRNAs upregulated at the MEC overall (hiPSC-CM pellet) [2]: miR-96-5p, miR-146b-5p
SMILES: CCCN1C[C@H](CSC)C[C@@H]2c3cccc4[nH]cc(c34)C[C@H]21 [Pergolide]
- fold induction at 0.3 µM [2, 6]: 1
- fold induction at 1 µM [2, 6]: 0.7
- fold induction at 3 µM [2, 6]: 1.4
- fold induction at 10 µM [2, 6]: 1
- fold induction at 0.3 µM [2, 7]: 1
- fold induction at 1 µM [2, 7]: 0.2
- fold induction at 0.3 µM [2, 8]: 2.8
- fold induction at 1 µM [2, 8]: 5.6
- fold induction at 0.3 µM [2, 9]: 1.2
- fold induction at 1 µM [2, 9]: 1.1
- fold induction at 3 µM [2, 9]: 1.1
- fold induction at 10 µM [2, 9]: 2
- fold induction at 0.3 µM [2, 10]: 4.3
- fold induction at 1 µM [2, 10]: 6.1
- fold induction at 3 µM [2, 10]: 20.8
- fold induction at 10 µM [2, 10]: 1.1
- fold induction at 0.3 µM [2, 11]: 0.5
- fold induction at 1 µM [2, 11]: 2.2
- fold induction at 3 µM [2, 11]: 0.9
- fold induction at 10 µM [2, 11]: 2.2
- fold induction at 0.3 µM [2, 12]: 1.1
- fold induction at 1 µM [2, 12]: 5.6
- fold induction at 3 µM [2, 12]: 7.2
- fold induction at 10 µM [2, 12]: 1.9
- fold induction at 0.3 µM [2, 13]: 0.6
- fold induction at 1 µM [2, 13]: 0.9
- fold induction at 3 µM [2, 13]: 21.8
- fold induction at 10 µM [2, 13]: 0.6
- fold induction at 0.3 µM [2, 14]: 1.5
- fold induction at 1 µM [2, 14]: 2.2
- fold induction at 3 µM [2, 14]: 2.6
- fold induction at 10 µM [2, 14]: 2.5
- fold induction at 1 µM ([2]; 72 h, read-out: hsa-miR-365a-5p fold change): 5.2
- fold induction at 0.3 µM [2, 15]: 0.9
- fold induction at 1 µM [2, 15]: 1.1
- fold induction at 3 µM [2, 15]: 1.7
- fold induction at 10 µM [2, 15]: 1.4
- Cmax total ([3]; Supplementary Table 1): 12.7 µM
- Cmax total ([3]; Table 1): 12.7 µM

- RTCA, MEC (CI) ([1]; hiPSC-CM, change ≥20%, Table 2): 0.03 µM
- Beating Rate MEC ([1]; human, 72 h): 0.1 µM
- Beating rate (BR) MEC ([1]; human, 72 h): 0.1 µM
- Contractility Amplitude MEC ([1]; human, 72 h): 0.1 µM
- Field Potential Duration MEC ([1]; human, 72 h): 0.1 µM
- Spike Amplitude (SA) MEC ([1]; human, 72 h): 0.1 µM
- miRNAs hiPSC-CM pellet, MEC overall [2]: 0.01 µM
SMILES: CC(C)C[C@H](NC(=O)[C@H](Cc1ccccc1)NC(=O)c1cnccn1)B(O)O [Bortezomib]
- miRNAs upregulated at the MEC overall (hiPSC-CM pellet) [2]: miR-126-3p, miR-182-5p, miR-185-3p, miR-187-3p, miR-7-5p
- Cmax total ([3]; Supplementary Table 1): 0.14 to 2.8 µM
- Cmax total ([3]; Table 1): 0.14 to 2.80 µM
